Measurements reported in paper PMC6009956, “Design, synthesis and biological activity of N^4-phenylsubstituted-7H-pyrrolo[2,3-d]pyrimidin-4-amines as dual inhibitors of aurora kinase A and epidermal growth factor receptor kinase” (Journal of Enzyme Inhibition and Medicinal Chemistry, 2017).
Where two headings read alike, the source gives them in different places.

Key:
aurora A kinase (AURKA) = target: T1, aurora A kinase (AURKA) (Homo sapiens, UniProt O14965); assay: ADP-Glo kinase assay, Aurora A; type: biochemical
T1 construct: purchased BPS Bioscience (assay run externally by the vendor)
T1 sequence (O14965 1-403): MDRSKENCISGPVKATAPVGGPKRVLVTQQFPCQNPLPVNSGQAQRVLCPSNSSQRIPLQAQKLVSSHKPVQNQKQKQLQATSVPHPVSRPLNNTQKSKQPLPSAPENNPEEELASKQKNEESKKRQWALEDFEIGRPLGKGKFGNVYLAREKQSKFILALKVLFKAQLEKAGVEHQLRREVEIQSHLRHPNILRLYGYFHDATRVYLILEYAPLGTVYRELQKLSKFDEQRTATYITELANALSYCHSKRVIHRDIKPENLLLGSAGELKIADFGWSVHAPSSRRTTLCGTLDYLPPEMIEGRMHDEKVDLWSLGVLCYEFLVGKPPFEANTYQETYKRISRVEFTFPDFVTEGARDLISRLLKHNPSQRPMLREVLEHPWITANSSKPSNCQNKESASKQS

EGFR = EGFR (Homo sapiens, UniProt P00533); assay: ADP-Glo kinase assay, EGFR; type: biochemical; design: purchased BPS Bioscience (assay run externally by the vendor)
[1] = 10 µM ATP, triplicate, read-out: AURKA IC50 ± SD
[2] = 10 µM ATP/0.2 mg/ml Kemptide, read-out: Aurora A IC50 (dose-response curve, supplement)
[3] = 10 µM ATP, triplicate, read-out: EGFR IC50 ± SD
[4] = 10 µM ATP/0.2 mg/ml Poly-Glu-Tyr, read-out: EGFR IC50 (dose-response curve, supplement)

Sequence of EGFR (P00533 25-1210): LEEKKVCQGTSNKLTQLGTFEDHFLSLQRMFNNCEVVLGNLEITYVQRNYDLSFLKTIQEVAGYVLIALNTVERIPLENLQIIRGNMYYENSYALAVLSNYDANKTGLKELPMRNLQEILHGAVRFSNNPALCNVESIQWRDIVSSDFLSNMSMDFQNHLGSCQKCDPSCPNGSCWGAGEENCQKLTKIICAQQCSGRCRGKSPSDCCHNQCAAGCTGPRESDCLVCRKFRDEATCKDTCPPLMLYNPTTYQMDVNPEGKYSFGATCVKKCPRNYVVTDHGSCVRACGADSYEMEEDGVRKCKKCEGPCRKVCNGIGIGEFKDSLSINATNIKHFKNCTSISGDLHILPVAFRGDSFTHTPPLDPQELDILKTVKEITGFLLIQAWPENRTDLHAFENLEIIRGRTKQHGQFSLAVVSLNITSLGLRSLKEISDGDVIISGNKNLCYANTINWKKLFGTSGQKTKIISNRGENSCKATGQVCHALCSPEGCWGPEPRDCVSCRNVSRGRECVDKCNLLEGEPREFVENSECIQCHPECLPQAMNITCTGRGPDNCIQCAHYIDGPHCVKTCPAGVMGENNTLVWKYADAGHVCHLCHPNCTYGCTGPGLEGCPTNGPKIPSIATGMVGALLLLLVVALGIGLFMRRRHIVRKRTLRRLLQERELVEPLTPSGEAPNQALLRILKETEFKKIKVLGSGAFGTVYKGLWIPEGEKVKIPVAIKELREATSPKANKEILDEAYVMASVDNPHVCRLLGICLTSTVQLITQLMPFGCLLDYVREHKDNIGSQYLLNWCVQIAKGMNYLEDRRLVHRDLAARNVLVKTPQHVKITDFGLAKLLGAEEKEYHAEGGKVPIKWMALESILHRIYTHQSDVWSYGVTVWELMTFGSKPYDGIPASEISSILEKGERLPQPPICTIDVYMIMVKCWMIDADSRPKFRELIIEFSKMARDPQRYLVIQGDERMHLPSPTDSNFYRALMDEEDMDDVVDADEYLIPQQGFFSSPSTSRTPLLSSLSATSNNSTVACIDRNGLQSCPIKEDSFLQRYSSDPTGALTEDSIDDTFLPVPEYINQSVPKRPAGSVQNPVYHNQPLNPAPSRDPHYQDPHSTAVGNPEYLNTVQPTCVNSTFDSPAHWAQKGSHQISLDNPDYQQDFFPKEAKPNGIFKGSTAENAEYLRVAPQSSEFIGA

## Cc1ccccc1Nc1ncnc2[nH]ccc12 [Compound 15, N^4-(2-methylphenyl)-7H-pyrrolo[2,3-d]pyrimidin-4-amine]
Aurora A kinase (AURKA); [1]
  IC50: 8.56 ± 1.74 µM
Aurora A kinase (AURKA); [2]
  IC50: 8.5 µM
Aurora A kinase (AURKA); Log[nM] 0
  Aurora A % Activity Set1: 95%
  Aurora A % Activity Set2: 97%
  Aurora A % Activity Set3: 102%
Aurora A kinase (AURKA); Log[nM] 1.0
  Aurora A % Activity Set1: 102%
  Aurora A % Activity Set2: 103%
  Aurora A % Activity Set3: 102%
Aurora A kinase (AURKA); Log[nM] 1.5
  Aurora A % Activity Set1: 105%
  Aurora A % Activity Set2: 105%
  Aurora A % Activity Set3: 107%
Aurora A kinase (AURKA); Log[nM] 2.0
  Aurora A % Activity Set1: 98%
  Aurora A % Activity Set2: 107%
  Aurora A % Activity Set3: 109%
Aurora A kinase (AURKA); Log[nM] 2.5
  Aurora A % Activity Set1: 103%
  Aurora A % Activity Set2: 103%
  Aurora A % Activity Set3: 107%
Aurora A kinase (AURKA); Log[nM] 3.0
  Aurora A % Activity Set1: 92%
  Aurora A % Activity Set2: 102%
  Aurora A % Activity Set3: 98%
Aurora A kinase (AURKA); Log[nM] 3.5
  Aurora A % Activity Set1: 66%
  Aurora A % Activity Set2: 73%
  Aurora A % Activity Set3: 70%
Aurora A kinase (AURKA); Log[nM] 4.0
  Aurora A % Activity Set1: 44%
  Aurora A % Activity Set2: 48%
  Aurora A % Activity Set3: 48%
Aurora A kinase (AURKA); Log[nM] 4.5
  Aurora A % Activity Set1: 18%
  Aurora A % Activity Set2: 18%
  Aurora A % Activity Set3: 19%
Aurora A kinase (AURKA); Log[nM] 5.0
  Aurora A % Activity Set1: 11%
  Aurora A % Activity Set2: 11%
  Aurora A % Activity Set3: 11%
EGFR; [3]
  IC50: 1.23 ± 0.201 µM
EGFR; [4]
  IC50: 1.2 µM
EGFR; Log[nM] 0
  EGFR % Activity Set1: 97%
  EGFR % Activity Set2: 98%
  EGFR % Activity Set3: 121%
EGFR; Log[nM] 1.0
  EGFR % Activity Set1: 109%
  EGFR % Activity Set2: 101%
  EGFR % Activity Set3: 128%
EGFR; Log[nM] 1.5
  EGFR % Activity Set1: 113%
  EGFR % Activity Set2: 108%
  EGFR % Activity Set3: 122%
EGFR; Log[nM] 2.0
  EGFR % Activity Set1: 111%
  EGFR % Activity Set2: 102%
  EGFR % Activity Set3: 99%
EGFR; Log[nM] 2.5
  EGFR % Activity Set1: 77%
  EGFR % Activity Set2: 82%
  EGFR % Activity Set3: 84%
EGFR; Log[nM] 3.0
  EGFR % Activity Set1: 55%
  EGFR % Activity Set2: 59%
  EGFR % Activity Set3: 52%
EGFR; Log[nM] 3.5
  EGFR % Activity Set1: 20%
  EGFR % Activity Set2: 24%
  EGFR % Activity Set3: 23%
EGFR; Log[nM] 4.0
  EGFR % Activity Set1: 12%
  EGFR % Activity Set2: 12%
  EGFR % Activity Set3: 10%
EGFR; Log[nM] 4.5
  EGFR % Activity Set1: 4%
  EGFR % Activity Set2: 5%
  EGFR % Activity Set3: 4%
EGFR; Log[nM] 5.0
  EGFR % Activity Set1: 4%
  EGFR % Activity Set2: 3%
  EGFR % Activity Set3: 3%

## c1ccc(Oc2ccc(Nc3ncnc4[nH]ccc34)cc2)cc1 [Compound 17, N^4-(4-phenoxyphenyl)-7H-pyrrolo[2,3-d]pyrimidin-4-amine]
Aurora A kinase (AURKA); [1]
  IC50: 13.3 ± 3.57 µM
Aurora A kinase (AURKA); [2]
  IC50: 12.9 µM
Aurora A kinase (AURKA); Log[nM] 0
  Aurora A % Activity Set1: 100%
  Aurora A % Activity Set2: 94%
  Aurora A % Activity Set3: 93%
Aurora A kinase (AURKA); Log[nM] 1.0
  Aurora A % Activity Set1: 97%
  Aurora A % Activity Set2: 97%
  Aurora A % Activity Set3: 97%
Aurora A kinase (AURKA); Log[nM] 1.5
  Aurora A % Activity Set1: 103%
  Aurora A % Activity Set2: 99%
  Aurora A % Activity Set3: 106%
Aurora A kinase (AURKA); Log[nM] 2.0
  Aurora A % Activity Set1: 97%
  Aurora A % Activity Set2: 100%
  Aurora A % Activity Set3: 98%
Aurora A kinase (AURKA); Log[nM] 2.5
  Aurora A % Activity Set1: 102%
  Aurora A % Activity Set2: 96%
  Aurora A % Activity Set3: 95%
Aurora A kinase (AURKA); Log[nM] 3.0
  Aurora A % Activity Set1: 77%
  Aurora A % Activity Set2: 81%
  Aurora A % Activity Set3: 79%
Aurora A kinase (AURKA); Log[nM] 3.5
  Aurora A % Activity Set1: 65%
  Aurora A % Activity Set2: 63%
  Aurora A % Activity Set3: 63%
Aurora A kinase (AURKA); Log[nM] 4.0
  Aurora A % Activity Set1: 46%
  Aurora A % Activity Set2: 42%
  Aurora A % Activity Set3: 44%
Aurora A kinase (AURKA); Log[nM] 4.5
  Aurora A % Activity Set1: 41%
  Aurora A % Activity Set2: 39%
  Aurora A % Activity Set3: 39%
Aurora A kinase (AURKA); Log[nM] 5.0
  Aurora A % Activity Set1: 34%
  Aurora A % Activity Set2: 34%
  Aurora A % Activity Set3: 32%
EGFR; [3]
  IC50: 0.111 ± 0.0151 µM
EGFR; [4]
  IC50: 0.11 µM
EGFR; Log[nM] 0
  EGFR % Activity Set1: 93%
  EGFR % Activity Set2: 101%
  EGFR % Activity Set3: 99%
EGFR; Log[nM] 1.0
  EGFR % Activity Set1: 90%
  EGFR % Activity Set2: 91%
  EGFR % Activity Set3: 97%
EGFR; Log[nM] 1.5
  EGFR % Activity Set1: 72%
  EGFR % Activity Set2: 77%
  EGFR % Activity Set3: 83%
EGFR; Log[nM] 2.0
  EGFR % Activity Set1: 49%
  EGFR % Activity Set2: 51%
  EGFR % Activity Set3: 55%
EGFR; Log[nM] 2.5
  EGFR % Activity Set1: 24%
  EGFR % Activity Set2: 23%
  EGFR % Activity Set3: 29%
EGFR; Log[nM] 3.0
  EGFR % Activity Set1: 11%
  EGFR % Activity Set2: 10%
  EGFR % Activity Set3: 12%
EGFR; Log[nM] 3.5
  EGFR % Activity Set1: 5%
  EGFR % Activity Set2: 5%
  EGFR % Activity Set3: 5%
EGFR; Log[nM] 4.0
  EGFR % Activity Set1: 4%
  EGFR % Activity Set2: 4%
  EGFR % Activity Set3: 5%
EGFR; Log[nM] 4.5
  EGFR % Activity Set1: 5%
  EGFR % Activity Set2: 5%
  EGFR % Activity Set3: 5%
EGFR; Log[nM] 5.0
  EGFR % Activity Set1: 4%
  EGFR % Activity Set2: 4%
  EGFR % Activity Set3: 4%
